Source: patent publication EP4796125A1, “TREATMENT OF PATIENT WITH NEGATIVE P53 GENE MUTATION, POSITIVE KRAS GENE MUTATION AND POSITIVE BRCA MUTATION” (Ascentawits Pharmaceuticals, Ltd., priority 2023, dated 2025)

Key:
H460 cells [1] = assay: Applicant's previous cancer cell proliferation inhibition test; type: cell-based; conditions: Homo sapiens, NCI-H460, single drug, applicant's previous test data
H460 cells [2] = assay: Cell cycle G2/M arrest, PI staining and flow cytometry; type: cell-based
Protocol: • 1) H460/HPAF-II cell suspensions were added to a 24-well plate, with a cell density of 100000 cells/well and 995 µL of medium per well. • 2) The cells were cultured overnight in a 37°C, 5% CO2 incubator. • 3) Compound Treatment
24 hours after cell plating, according to the protocol, the experimental groups for each cell line were as follows: Monotherapy: 24 hours after cell plating, 5 µL of test compounds at different concentrations was added: 1% DMSO, 5 µM Nutlin-3, and 0.1 nM AST-3424. The plate was gently shaken to ensure even mixing, and then placed in a 37°C, 5% CO2 incubator.
• Cells were pretreated with AST-3424 for 2 hours, and then co-treatment with Nutlin-3 for 24 hours; • cells were pretreated with Nutlin-3 for 2 hours, and then co-treatment with AS -3424 for 24 hours; and • cells were co-treated with AST-3424 and Nutlin-3 for 24 hours. • 4) The cells were digested, centrifuged at 1000 g at 4°C, washed once with pre-cooled PBS, centrifuged at 1000 g at 4°C, and fixed with 1 mL of pre-cooled 70% ethanol at - 20°C overnight. • 5) The cells were centrifuged at 3000 g at 4°C, washed once with pre-cooled PBS (phosphate buffer), and centrifuged at 3000g at 4°C. PI staining solution was prepared. The cells were stained at 37°Cfor 30 minutes (protected from light), and stored in an ice bath (protected from light). The cells were detected using a flow cytometer on the same day, and the proportions of cells in different cell cycle phases was analyzed using FlowJo.
The remaining operations were similar to those of the above experiment, and the compound treatment was as follows: […]

[3] = system: cell lines and mouse tumor models of BRCA pathogenic mutations; conditions: in vitro and in vivo pharmacodynamic experiments; data of WO2023174319A; cited from earlier work
NCI-H460 P53KO #1 cells = assay: In vitro proliferation under normoxia conditions (CTG, 72 hours), Example 29; type: cell-based, human; conditions: Table 25
Protocol: • 1) NCI-H460 and NCI-H460 P53KO # 1 cell suspensions were added to 96-well plate (100 µL per well), with a cell density of 2000 cells/well. • 2) The cells were cultured overnight in a 37°C, 5% CO2 incubator. • 3) Compound Treatment
Monotherapy: 24 hours after cell plating, each well was supplemented with 99.5 µL of growth medium. Then, 0.5 µL of test compounds at different concentrations was added. The plate was gently shaken to ensure even mixing, and then placed in a 37°C, 5% CO2 incubator.
Combination therapy: 24 hours after cell plating, each well was supplemented with 99 µL of growth medium. Then, 0.5 µL of the combination compound was added. The plate was gently shaken to ensure even mixing, and then placed in an incubator for 2 hours. Then, 0.5µL of test compounds at different concentrations was added. The plate was gently shaken to ensure even mixing, and then placed in a 37°C, 5% CO2 incubator. • 4) The cell plate was placed in the incubator for 72 hours. • 5) The cell plate to be tested was placed at room temperature and equilibrated for 30 minutes, and 100 µL of medium was discarded from each well. • 6) 25 µL of CTG reagent was added to each well, placed at a fast shaker to shake for 2 minutes, and placed at room temperature for 30 minutes (protected from light). • 7) The chemiluminescence signal value was read using a multifunctional microplate reader with a reading time of 1000 ms. • 8) IC50 (half maximal inhibitory concentration) values were calculated using GraphPad Prism 5 software.

A549 cells = assay: Cell cycle G2/M arrest, PI staining and flow cytometry; type: cell-based; conditions: 0.3-9 nM AST-3424 ± 5 µM Nutlin-3 (AST-3424 pre-treatment 2 hours), second experiment (Figure 10)
Protocol: The remaining operations were similar to those of the above experiment, and the compound treatment was as follows:
• For H460 cell line, 1% DMSO, adding 5 µM Nutlin-3 for treatment for 22 hours, adding 0.03 nM AST-3424 for treatment for 24 hours, adding 0.1 nM AST-3424 for treatment for 24 hours, adding 0.3 nM AST-3424 for treatment for 24 hours, and adding 1 nM AST-3424 for treatment for 24 hours; • For A549 cell line, 1% DMSO, adding 5 µM Nutlin-3 for treatment for 22 hours, adding 0.3 nM AST-3424 for treatment for 24 hours, adding 1 nM AST-3424 for treatment for 24 hours, adding […] AST-3424 for treatment for 24 hours.
For A549 cell line, • Adding 0.3 nM AST-3424 for pre-treatment for 2 hours, and then adding 5 µM Nutlin-3 for co-treatment for 22 hours; • Adding 1 nM AST-3424 for pre-treatment for 2 hours, and then adding 5 µM Nutlin-3 for co-treatment for 22 hours; • Adding 3 nM AST-3424 for pre-treatment for 2 hours, and then adding 5 µM Nutlin-3 for co-treatment for 22 hours; • Adding 9 nM AST-3424 for pre-treatment for 2 hours, and then adding 5 µM Nutlin-3 for co-treatment for 22 hours.

In the case of `C[C@H](OP(=O)(N1CC1)N1CC1)c1ccc([N+](=O)[O-])c(Oc2cccc(C(=O)N(C)C)c2)c1` [AST-3424], the IC50 (H460 cells [1]) is reported as 0.47 nM, the “cell cycle (G0/G1, S, G2/M phases)” value (H460 cells [2]; 0.1 nM AST-3424, 5 µM Nutlin-3, 24 hours, combination: AST-3424 added first (Figure 9)) is reported as “does not significantly alter the cell cycle” and the “G2/M cell cycle arrest” value (H460 cells [2]; 0.03-1 nM AST-3424 ± 5 µM Nutlin-3 (AST-3424 pre-treatment 2 hours), second experiment (Figure 10)) is reported as “induces concentration-dependent G2/M cell cycle arrest”. For the same compound, the “sensitivity of cell lines and mouse tumor models of BRCA pathogenic mutations” value [3] was “more sensitive”, the IC50 (NCI-H460 P53KO #1 cells; Homo sapiens, NCI-H460 P53KO # 1, normoxia, alone or + 3 µM AST-3021) was 5.45 nM and the “Ratio, knockout / wild-type” value (NCI-H460 P53KO #1 cells; IC50 in NCI-H460 P53KO # 1 / NCI-H460) was 12.67. The “G2/M cell cycle arrest” value (A549 cells) was “induces concentration-dependent G2/M cell cycle arrest”.
